Experiment [1] relates to human hepatocellular carcinoma SMMC-7721 cell line. In words: MTT antiproliferative assay, SMMC-7721. Type of experiment: cell-based. The conditions noted are these: for IC50: Homo sapiens, SMMC-7721, means ± SEM (n=3). As to the method:
(§1) The human colon cancer SW1116 cell line, the human hepatocellular carcinoma SMMC-7721 cell line, the human gastric cancer SGC-7901 cell line, and the human hepatocellular carcinoma HepG2 cell line were kindly provided by Xiao-li Xu from the Cancer Center, Fudan University. The human embryonic kidney 293T (HEK293T) cell line was kindly donated by Professor You-hua Xie from Fudan University. These human cancer cell lines were cultured in DMEM medium or RPMI-1640 medium, whereas the HEK293T cell line was cultured in MEM medium. All of the cell lines were supplemented with 10% FBS, penicillin (100 U/ml), and streptomycin ([…]) under a humidified atmosphere of 5% CO2 at 37°C using a CO2 incubator (SANYO, Osaka, Japan). Cell count was assessed using the trypan blue dye exclusion method.
(§2) The antiproliferative effects of the treatments were evaluated using the MTT assay. Cells were seeded at a density of 5×10^3 cells/well in 96-well plates (Corning, NY, USA). After attachment, the culture media were replaced with various concentrations of chemicals for 24 h. Then, the media in 96-well plates were incubated with MTT reagent (5 mg/ml) for 4 h at 37°C. Subsequently, the culture medium was discarded and 100 μl of DMSO was added to each well, to solubilize the formazan crystal formed. The absorbance of formazan crystal solution was determined at 570 nm on a Multiskan FC from Thermo Fisher Scientific Inc. (Waltham, MA, USA).
On the technique in general: Tetrazolium assays rely on reduction of a dye to a coloured formazan, in cell work by metabolically active cells.

For experiment [2], the system named is human colon cancer SW1116 cell line. In words: MTT antiproliferative assay, SW1116. Type of experiment: cell-based. The following applies: for IC50: Homo sapiens, SW 1116, means ± SEM (n=3); for cell viability of SW1116 cells compared with normal group (0 μM): 30 μM, p < 0.01. As to the method:
as §1, §2

Experiment [3] concerns human embryonic kidney 293T (HEK293T) cell line. The experiment can be described thus: MTT cytotoxicity against normal cell line HEK293T. The following applies: 24 h; for IC50: Homo sapiens, HEK-293T, means ± SEM (n=3). Type of experiment: cell-based. As to the method: as §1, §2
In experiment [4] the test system is human gastric cancer SGC-7901 cell line. In words: MTT antiproliferative assay, SGC-7901. Type of experiment: cell-based. The following applies: 24 h, 1.0-100.0 μM, means ± SEM (n=3). As to the method:
as §1, §2

Experiment [5] has as its system human hepatocellular carcinoma HepG2 cell line. In words: MTT antiproliferative assay, HepG2. Type of experiment: cell-based. The following applies: 24 h, 1.0-100.0 μM, means ± SEM (n=3). As to the method:
as §1, §2

Experiment [6] concerns KB (oral epidermoid carcinoma cell line). Also noted: method as in Trieu et al., 2014. The following applies: ref Trieu et al., 2014; cited from earlier work.
The subject of the next experiment is HepG2 (liver cancer). Also on record: method as in Trieu et al., 2014. The following applies: ref Trieu et al., 2014; cited from earlier work.
In the next experiment the test system is MCF7 (breast carcinoma). Also noted: method as in Trieu et al., 2014. The conditions noted are these: ref Trieu et al., 2014; cited from earlier work.
In another experiment the test system is SW1116 cells. In words: Annexin V-FITC/PI double staining by flow cytometry. It counts as cell-based, human. The following applies: 36 h. As to the method: The growing cells were incubated in 24-well microplates (Corning, NY, USA) for 24 h. The cells were then treated with various concentrations of leiocarpin E-7′-monoacetate or taxol in humidified air with 5% CO2 at 37°C. After 36 h of incubation, the culture medium was discarded, and the cells were collected. For the apoptosis analysis, cells were suspended with 1×binding buffer (1×10^6 cells/ml) and then labeled with annexin V-FITC/PI, as per the manufacturer's instructions (Keygentec, Nanjing, Jiangsu, China). The analysis of the samples was performed by flow cytometry (Becton-Dickinson Bioscience, San Jose, CA, USA), and the acquired data was analyzed by the CellQuest software (Becton-Dickinson Bioscience, San Jose, CA, USA).

In experiment [7] the test system is caspase-3, -8 and -9 in SW1116 cells. In words: Caspase activity assay in cell lysates. Type of experiment: cell-based, human. The following applies: 8 h. As to the method: To evaluate the activity of caspases, cell lysates were prepared after their respective designated treatments. The incubation of the growing cells was carried out in 24-well microplates (Corning, NY, USA) for 24 h. The cells were then treated with different concentrations of leiocarpin E-7′-monoacetate under humidified air with 5% CO2 at 37°C. After 8 h of incubation, the culture medium was discarded, the cells collected and washed twice with PBS. The mixture was then centrifuged at 2,000 rpm for 5 min. The PBS supernatant was discarded and the cells (concentration, 5×10^6 cells) were collected. To these cells, ice-cold lysis buffer (150~200 μl) was added. The mixture was placed on ice for 30 min, and then centrifuged (10,000 rpm, 1 min) at 4°C. The supernatant, containing lysed protein, was carefully aspirated and transferred to a new tube. The protein concentration was then measured in 2 μl of the supernatant using the Bradford method. The caspase assays were then performed in 96-well microtiter plates (Keygentec, Nanjing, Jiangsu, China) by incubating 10 μl of protein cell lysate per sample in 80 μl of reaction buffer (1% NP-40, 20 mM Tris-HCl (pH 7.5), 137 mM NaCl, and 10% glycerol) containing 10 μl of caspase substrate (2 mM). Lysates were incubated at 37°C for 4 h. Measuremet was done at 405 nm on a Multiskan FC from Thermo Fisher Scientific Inc. (Waltham, MA, USA). The detailed analysis procedure is described in the manufacturer's protocol (Keygentec, Nanjing, Jiangsu, China).

[8] abbreviates: MTT, 24 h, 1.0-100.0 μM, read-out: IC50 SMMC-7721.
[9] abbreviates: MTT, 24 h, 1.0-100.0 μM, read-out: IC50 SW1116.
The mark [10] stands for this setting: 1.0-100.0 μM, read-out: IC50 HEK293T.

As a reminder, the IC50 is the point on the concentration scale where inhibition reaches its midpoint.

“Also recorded” adds a separate entry of the source. Like-named read-outs stand apart in the source and are kept apart here.

As for hydroxypropyl-β-cyclodextrin [HP-β-CD], in [1] (MTT, 24 h, 25.0-200.0 μM), the “inhibition of growth, SMMC-7721” value is on record as “did not show any inhibition; also recorded: no inhibitory effect”. Also, the “inhibition of growth, SW1116” value in [2] (MTT, 24 h, 25.0-200.0 μM) was “did not show any inhibition; also recorded: no inhibitory effect”. Further, the “inhibitory activity against HEK293T” value in [3] (25.0-200.0 μM) is reported as “did not show any inhibitory activity”.
As for `COc1cc([C@@H]2c3cc4c(cc3[C@@H](O[C@@H]3O[C@@H]5CO[C@@H](C)O[C@H]5[C@H](O)[C@H]3O)[C@H]3COC(=O)[C@H]23)OCO4)cc(OC)c1O` [VP-16, Etoposide, reference compound], the 50% inhibitory concentration (IC50) in experiment [4] was greater than 100 µM; in [1] (setting [8]), greater than 100 µM; in experiment [2] (setting [9]) it was 41.9 ± 0.98 µM; in experiment [5], greater than 100 µM; in experiment [3] (setting [10]), greater than 100 µM.
As for `CC(=O)OC1C(c2ccccc2)OC2C=CC(=O)OC21` (centres unmarked) [7-acetylaltholactone], the IC50 in experiment [6] was 13.1 µM; in the experiment with HepG2 (liver cancer), 23.7 µM; in the experiment on MCF7 (breast carcinoma) it was 60.2 µM.
Regarding `O=C1C=CC[C@H]([C@@H](O)[C@H]2O[C@H]([C@H]3CC=CC(=O)O3)[C@@H](c3ccccc3)c3ccccc32)O1` [Leiocarpin E, (R)-6-((R)-hydroxy((1S,3S,4S)-3-((R)-6-oxo-3,6-dihydro-2H-pyran-2-yl)-4-phenylisochroman-1-yl)methyl)-5,6-dihydro-2H-pyran-2-one], the IC50 was greater than 100 µM in experiment [4]; greater than 100 µM in experiment [1] (setting [8]); 15.1 ± 1.87 µM in experiment [2] (setting [9]); greater than 100 µM in experiment [5]; greater than 100 µM in experiment [3] (setting [10]). Besides, in experiment [2] (24 h), the “cell viability of SW1116 cells compared with normal group (0 μM)” value is recorded as “significantly less”.
As to `O=C1C=CC[C@H]([C@H](O)[C@H](O)c2ccccc2)O1` [Goniodiol, (R)-6-((1R,2R)-1,2-dihydroxy-2-phenylethyl)-5,6-dihydro-2H-pyran-2-one], the IC50 is greater than 100 µM in experiment [4]; greater than 100 µM in [1] (setting [8]); 80 ± 4.16 µM in experiment [2] (setting [9]); greater than 100 µM in experiment [5]; greater than 100 µM in experiment [3] (setting [10]).
Turning to `CC(=O)O[C@H]1C=CC(=O)O[C@H]1[C@H]1O[C@@H]1c1ccccc1` [Cheliensisin A, (2R,3S)-6-oxo-2-((2S,3R)-3-phenyloxiran-2-yl)-3,6-dihydro-2H-pyran-3-yl acetate], the IC50 in experiment [4] is greater than 100 µM; in [1] (setting [8]), greater than 100 µM; in [1] (pristine compound, MTT, 24 h, 25.0-200.0 μM, read-out: IC50 SMMC-7721 Compound), 111 ± 2.41 µM; in experiment [2] (setting [9]), 93.18 ± 0.78 µM; in experiment [2] (pristine compound, MTT, 24 h, 25.0-200.0 μM, read-out: IC50 SW1116 Compound) it was 93.18 ± 0.78 µM; in experiment [5] it was greater than 100 µM. The IC50 in experiment [3] (setting [10]) is greater than 100 µM; in [3] (pristine compound, 25.0-200.0 μM, read-out: IC50 HEK293T Compound), greater than 200 µM. Besides, the “IC50 reduced by complexation with HP-β-CD, SMMC-7721” value in [1] (complex vs pristine compound) stood at 58%. Besides, the “IC50 reduced by complexation with HP-β-CD, SW1116” value in experiment [2] (complex vs pristine compound) stood at 45%.
Take `CC(=O)OC(C1CC=CC(=O)O1)C1OC(C2CC=CC(=O)O2)C(c2ccccc2)c2ccccc21` (centres unmarked) [Leiocarpin E-7′-monoacetate, leiocarpin E-7′-monoacetate]: the IC50 is 45 ± 4.27 µM in [4]; 61.7 ± 10.1 µM in experiment [1] (setting [8]); 6.73 ± 0.89 µM in experiment [2] (setting [9]); 50.1 ± 3.25 µM in experiment [5]; greater than 100 µM in experiment [3] (setting [10]). Besides, the “cell viability of SW1116 cells compared with normal group (0 μM)” value in experiment [2] (24 h) is recorded as “significantly less”. Further, the “early apoptosis rate (Q4)” value in the experiment with SW1116 cells (SW1116, 3 μM) is on record as 2.6%; with SW1116 cells (SW1116, 10 μM), 21.8%; in the experiment on SW1116 cells (SW1116, 30 μM) it was 55.2%. Also, the “ratio of ODsample to ODnegative (caspase activity)” value was no more than 1 in experiment [7] (SW1116, 3 μM); “greater than 1” in experiment [7] (SW1116, 10 μM); “greater than 1” in experiment [7] (SW1116, 30 μM).
Regarding `O=C1C=CC[C@H]([C@@H](O)[C@H](Oc2cc(O)c3c(c2)O[C@H](c2ccccc2)CC3=O)c2ccccc2)O1` [Leiocarpin B, (S)-5-hydroxy-7-((1R,2R)-2-hydroxy-2-((R)-6-oxo-3,6-dihydro-2H-pyran-2-yl)-1-phenylethoxy)-2-phenylchroman-4-one], the IC50 is 18.2 ± 0.88 µM in experiment [4]; 15.5 ± 1.11 µM in experiment [1] (setting [8]); 17.5 ± 0.69 µM in experiment [2] (setting [9]); 19.3 ± 1.42 µM in experiment [5]; greater than 100 µM in experiment [3] (setting [10]). Besides, the “cell viability of SW1116 cells compared with normal group (0 μM)” value in experiment [2] (24 h) is recorded as “significantly less”.

These data come from publication PMC7188779, “Hydroxypropyl-β-Cyclodextrin Complexes of Styryllactones Enhance the Anti-Tumor Effect in SW1116 Cell Line” (Frontiers in Pharmacology, 2020).
